Laboratory results reported in patent US11059795B2, “Androgen receptor modulators and methods for their use” (ESSA Pharma, Inc., priority 2018, dated 2021).

Tests used:
LNCaP cells = assay: Cell proliferation/viability assay, LNCaP (Alamar blue); format: cell-based; settings: Homo sapiens, AR specific proliferation with 0.1 nM R1881, read-out: Cellular Proliferation/Viability IC50 (μM) LNCaP
Description: (§1) Cell proliferation/viability was measured in LNCaP and PC3 cells with Alamar blue, and proliferation was measured in LN-CaP95 cells with BrdU incorporation. In LNCaP cells, AR specific proliferation is calculated by measuring the difference between control cells treated with or without 0.1 nM R1881.

PC3 cells = assay: Cell proliferation/viability assay, PC3 (Alamar blue); format: cell-based; settings: Homo sapiens; PC-3, Alamar blue; read-out: Cellular Proliferation/Viability IC50 (μM) PC-3
Description: as §1

LN-CaP95 cells = assay: Cell proliferation assay, LNCaP95 (BrdU incorporation); format: cell-based; settings: LNCaP-95, read-out: Cellular Proliferation/Viability IC50 (μM) LNCaP95
Description: as §1

LNCaP tumors = assay: LNCaP xenografts model in castrated male NCG mice; format: in vivo; settings: Table 4; extrapolated Cmin in efficacy
Description: Tumor growth was measured in male NCG mice bearing LNCaP tumors. Castration was performed when tumors reached ˜100 mm^3 and dosing (60 mg/kg PO qd) started 1 week after castration. […] Individual tumor volume change from baseline measured at the end of the experiment.

Structure (SMILES) | IC50 (LNCaP cells) [µM] | IC50 (PC3 cells) [µM] | IC50 (LN-CaP95 cells) [µM] | Cmin at 5 mg/kg PO (LNCaP tumors) [µM]
CC(C)(c1ccc(OCc2ocnc2S(C)(=O)=O)cc1)c1cc(Cl)c(OCCCl)c(Cl)c1 [Compound A13, 5-((4-(2-(3,5-dichloro-4-(2-chloroethoxy)phenyl)propan-2-yl)phenoxy)methyl)-4-(methylsulfonyl)oxazole] | 0.85 | > 10 | 4 | 2.78
CC(C)(c1ccc(OCc2ocnc2S(C)(=O)=O)cc1)c1cc(Cl)c(OCCCl)c(C#N)c1 [Compound A28, 3-chloro-2-(2-chloroethoxy)-5-(2-(4-((4-(methylsulfonyl)oxazol-5-yl)methoxy)phenyl)propan-2-yl)benzonitrile] | 0.68 | > 10 | 6.43 | 
CC(C)(c1ccc(OCc2ccnc(NS(C)(=O)=O)n2)cc1)c1cc(Cl)c(OCCCl)c(Cl)c1 [Compound A74, N-(4-((4-(2-(3,5-dichloro-4-(2-chloroethoxy)phenyl)propan-2-yl)phenoxy)methyl)pyrimidin-2-yl)methanesulfonamide] | 1.16 | > 10 | 2.65 | 29.1
CC(C)(c1ccc(OCc2ccnc(NS(C)(=O)=O)n2)cc1)c1cc(Cl)c(OCCCl)c(C#N)c1 [Compound A109, N-(4-((4-(2-(3-chloro-4-(2-chloroethoxy)-5-cyanophenyl)propan-2-yl)phenoxy)methyl)pyrimidin-2-yl)methanesulfonamide] | 0.44 | > 10 | 3.78 | 8.18
CC(C)(c1ccc(OC[C@H](O)CNS(C)(=O)=O)cc1)c1cc(Cl)c(OC[C@H](O)CCl)c(Cl)c1 [X, reference compound] | 3 | > 10 | 4 | 
